# Results as given in US11395857B2, “Radiolabeled melanocortin 1 receptor-specific alpha-melanocyte-stimulating hormone analogues for imaging or therapy” (PROVINCIAL HEALTH SERVICES AUTHORITY, priority 2018, dated 2022).
# Tests used:
# SK-MEL-1 human melanoma [1] = assay: Biodistribution of 177Lu-labeled αMSH analogues in mice bearing SK-MEL-1 human melanoma; settings: compared to the other two analogues
# Description: (§1) The SK-MEL-1 human melanoma cell line (HTB-67) was obtained commercially from ATCC. SK-MEL-1 cells were cultured in Eagle's Minimum Essential Medium (StemCell Technologies) under the same conditions as described in Example 1. Immunodeficient NOD.Cg-Rag1tm1Mom I12rgtm1Wjl/SzJ (NRG) male mice were obtained from an in-house breeding colony at the BC Cancer Research Centre. For tumor implantation, male NRG mice were anesthetized by inhalation with 2% isoflurane, and 5 million SK-MEL-1 cells were inoculated subcutaneously on the right dorsal flank. Mice were used for imaging or biodistribution studies when the tumors reached 6-8 mm in diameter in 16-20 days.
# (§2) Biodistribution studies were performed as described in Example 3.
# [2] = as above; settings: male, mouse, total radioactivity
# Description: as §1, §2
# in vivo = settings: male, NRG (NOD.Cg-Rag1tm1Mom Il2rgtm1Wjl/SzJ), mouse, total radioactivity
# Description: as §1, §2
# SK-MEL-1 human melanoma [3] = assay: Radioligand therapy of SK-MEL-1 human melanoma-bearing mice; assay type: in vivo, NRG mice; settings: radiotherapy group, 26.7±3.6 MBq/mouse
# Description: For radioligand therapy, SK-MEL-1 human melanoma-bearing mice were injected with saline (control group, n=5), non-radioactive lutetium coupled CCZ01158 (cold std, n=4), and [^177Lu]Lu-CCZ01158 (26.7±3.6 MBq/mouse, n=4). Tumour size and body weight were measured every 2-4 days from the date of injection. Endpoint was defined as >15% weight loss, ulceration of tumours, or tumour volume >1000 mm^3 (Volume=width×width×length/2, measured with calliper). […] This confirms the effectiveness of the ^177Lu radiotherapy with CCZ01158 as the melanoma targeting molecule. […] All mice were euthanized when the tumours reached over 1000 mm^3, except for one mouse due to weight loss in the saline group, and one mouse due to tumour ulceration in the cold std group.
# [4] = NRG (NOD.Cg-Rag1tm1Mom I12rgtm1Wjl/SzJ), fat, iv
# [5] = NRG (NOD.Cg-Rag1tm1Mom I12rgtm1Wjl/SzJ), seminal glands, iv
# [6] = NRG (NOD.Cg-Rag1tm1Mom Il2rgtm1Wjl/SzJ), SK-MEL-1 tumour
# [7] = NRG (NOD.Cg-Rag1tm1Mom Il2rgtm1Wjl/SzJ), adrenal glands
# [8] = NRG (NOD.Cg-Rag1tm1Mom Il2rgtm1Wjl/SzJ), blood
# [9] = NRG (NOD.Cg-Rag1tm1Mom Il2rgtm1Wjl/SzJ), bone
# [10] = NRG (NOD.Cg-Rag1tm1Mom Il2rgtm1Wjl/SzJ), brain
# [11] = NRG (NOD.Cg-Rag1tm1Mom Il2rgtm1Wjl/SzJ), heart
# [12] = NRG (NOD.Cg-Rag1tm1Mom Il2rgtm1Wjl/SzJ), intestine
# [13] = NRG (NOD.Cg-Rag1tm1Mom Il2rgtm1Wjl/SzJ), kidneys
# [14] = NRG (NOD.Cg-Rag1tm1Mom Il2rgtm1Wjl/SzJ), liver
# [15] = NRG (NOD.Cg-Rag1tm1Mom Il2rgtm1Wjl/SzJ), lungs
# [16] = NRG (NOD.Cg-Rag1tm1Mom Il2rgtm1Wjl/SzJ), muscle
# [17] = NRG (NOD.Cg-Rag1tm1Mom Il2rgtm1Wjl/SzJ), pancreas
# [18] = NRG (NOD.Cg-Rag1tm1Mom Il2rgtm1Wjl/SzJ), spleen
# [19] = NRG (NOD.Cg-Rag1tm1Mom Il2rgtm1Wjl/SzJ), stomach
# [20] = NRG (NOD.Cg-Rag1tm1Mom Il2rgtm1Wjl/SzJ), testes
# [21] = NRG (NOD.Cg-Rag1tm1Mom Il2rgtm1Wjl/SzJ), thyroid
# [22] = NRG (NOD.Cg-Rag1tm1Mom Il2rgtm1Wjl/SzJ), urine
smiles,measurement,setting,value
"CCCC[C@H](NC(=O)CN1CCC(NC(=O)[C@H](CCCCNC(=O)CN2CCN(CC(=O)O)CCN(CC(=O)O)CCN(CC(=O)O)CC2)NC(=O)CNC(=O)CCCc2ccc(-c3ccc(C)cc3)cc2)CC1)C(=O)N[C@H]1CC(=O)NCCCC[C@@H](C(N)=O)N(C)C(=O)[C@H](Cc2c[nH]c3ccccc23)NC(=O)[C@H](CCCNC(=N)N)N(C)C(=O)[C@@H](Cc2ccccc2)NC(=O)[C@H](Cc2c[nH]cn2)NC1=O [^177Lu-labeled CCZ01158, metal not drawn]",Overall comparison of tumour uptake and tumour to background contrast,SK-MEL-1 human melanoma [1],"superior due to high and sustained tumour uptake, as well as superior tumour to background contrast"
same,tissue uptake at 1 h,[2]; [4],2.24 ± 0.49 %ID/g
same,tissue uptake at 4 h,[2]; [4],1.85 ± 0.53 %ID/g
same,tissue uptake at 24 h,[2]; [4],0.3 ± 0.07 %ID/g
same,tissue uptake at 120 h,[2]; [4],0.2 ± 0.08 %ID/g
same,tissue uptake at 1 h,[2]; [5],1.8 ± 0.79 %ID/g
same,tissue uptake at 4 h,[2]; [5],0.79 ± 0.13 %ID/g
same,tissue uptake at 24 h,[2]; [5],0.15 ± 0.07 %ID/g
same,tissue uptake at 120 h,[2]; [5],0.11 ± 0.06 %ID/g
same,tissue uptake at 1 h,[2]; [6],13.3 ± 2.94 %ID/g
same,tissue uptake at 4 h,[2]; [6],24.3 ± 5.04 %ID/g
same,tissue uptake at 24 h,[2]; [6],29.7 ± 4.29 %ID/g
same,tissue uptake at 120 h,[2]; [6],19.3 ± 7.95 %ID/g
same,tissue uptake at 1 h,[2]; [7],5.1 ± 1.69 %ID/g
same,tissue uptake at 4 h,[2]; [7],3.54 ± 1.01 %ID/g
same,tissue uptake at 24 h,[2]; [7],1.68 ± 0.93 %ID/g
same,tissue uptake at 120 h,[2]; [7],1.36 ± 1.56 %ID/g
same,tissue uptake at 1 h,[2]; [8],19.1 ± 3.57 %ID/g
same,tissue uptake at 4 h,[2]; [8],10.8 ± 0.87 %ID/g
same,tissue uptake at 24 h,[2]; [8],0.54 ± 0.24 %ID/g
same,tissue uptake at 120 h,[2]; [8],0.04 ± 0.01 %ID/g
same,tissue uptake at 1 h,[2]; [9],1.36 ± 0.32 %ID/g
same,tissue uptake at 4 h,[2]; [9],0.8 ± 0.24 %ID/g
same,tissue uptake at 24 h,[2]; [9],0.24 ± 0.15 %ID/g
same,tissue uptake at 120 h,[2]; [9],0.23 ± 0.09 %ID/g
same,tissue uptake at 1 h,[2]; [10],0.33 ± 0.1 %ID/g
same,tissue uptake at 4 h,[2]; [10],0.2 ± 0.01 %ID/g
same,tissue uptake at 24 h,[2]; [10],0.04 ± 0.02 %ID/g
same,tissue uptake at 120 h,[2]; [10],0.03 ± 0.02 %ID/g
same,tissue uptake at 1 h,[2]; [11],4.7 ± 0.7 %ID/g
same,tissue uptake at 4 h,[2]; [11],2.84 ± 0.4 %ID/g
same,tissue uptake at 24 h,[2]; [11],0.5 ± 0.2 %ID/g
same,tissue uptake at 120 h,[2]; [11],0.3 ± 0.13 %ID/g
same,tissue uptake at 1 h,[2]; [12],2.07 ± 0.42 %ID/g
same,tissue uptake at 4 h,[2]; [12],1.32 ± 0.2 %ID/g
same,tissue uptake at 24 h,[2]; [12],0.51 ± 0.52 %ID/g
same,tissue uptake at 120 h,[2]; [12],0.28 ± 0.11 %ID/g
same,tissue uptake at 1 h,[2]; [13],11.3 ± 2.81 %ID/g
same,tissue uptake at 4 h,[2]; [13],11.3 ± 1.38 %ID/g
same,tissue uptake at 24 h,[2]; [13],8.29 ± 1.94 %ID/g
same,tissue uptake at 120 h,[2]; [13],3.26 ± 1.6 %ID/g
same,tissue uptake at 1 h,[2]; [14],7.24 ± 2.38 %ID/g
same,tissue uptake at 4 h,[2]; [14],6.37 ± 1.33 %ID/g
same,tissue uptake at 24 h,[2]; [14],4.45 ± 2.6 %ID/g
same,tissue uptake at 120 h,[2]; [14],3.85 ± 1.63 %ID/g
same,tissue uptake at 1 h,[2]; [15],11.2 ± 2.91 %ID/g
same,tissue uptake at 4 h,[2]; [15],6.81 ± 1.45 %ID/g
same,tissue uptake at 24 h,[2]; [15],1.55 ± 1.22 %ID/g
same,tissue uptake at 120 h,[2]; [15],2.15 ± 2.57 %ID/g
same,tissue uptake at 1 h,[2]; [16],1.67 ± 0.35 %ID/g
same,tissue uptake at 4 h,[2]; [16],1.03 ± 0.06 %ID/g
same,tissue uptake at 24 h,[2]; [16],0.13 ± 0.04 %ID/g
same,tissue uptake at 120 h,[2]; [16],0.05 ± 0.02 %ID/g
same,tissue uptake at 1 h,[2]; [17],1.87 ± 0.3 %ID/g
same,tissue uptake at 4 h,[2]; [17],1.22 ± 0.08 %ID/g
same,tissue uptake at 24 h,[2]; [17],0.27 ± 0.13 %ID/g
same,tissue uptake at 120 h,[2]; [17],0.16 ± 0.07 %ID/g
same,tissue uptake at 1 h,[2]; [18],3.9 ± 1.66 %ID/g
same,tissue uptake at 4 h,[2]; [18],2.5 ± 0.5 %ID/g
same,tissue uptake at 24 h,[2]; [18],1.89 ± 0.85 %ID/g
same,tissue uptake at 120 h,[2]; [18],4.6 ± 3.88 %ID/g
same,tissue uptake at 1 h,[2]; [19],0.85 ± 0.29 %ID/g
same,tissue uptake at 4 h,[2]; [19],0.66 ± 0.12 %ID/g
same,tissue uptake at 24 h,[2]; [19],1.07 ± 1.42 %ID/g
same,tissue uptake at 120 h,[2]; [19],1.24 ± 0.65 %ID/g
same,tissue uptake at 1 h,[2]; [20],2.99 ± 0.56 %ID/g
same,tissue uptake at 4 h,[2]; [20],2.8 ± 0.12 %ID/g
same,tissue uptake at 24 h,[2]; [20],0.92 ± 0.26 %ID/g
same,tissue uptake at 120 h,[2]; [20],0.56 ± 0.25 %ID/g
same,tissue uptake at 1 h,[2]; [21],5.57 ± 0.79 %ID/g
same,tissue uptake at 4 h,[2]; [21],5.74 ± 0.74 %ID/g
same,tissue uptake at 24 h,[2]; [21],5.04 ± 1.22 %ID/g
same,tissue uptake at 120 h,[2]; [21],5.4 ± 2.58 %ID/g
same,tissue to tissue ratio at 1 h,"[2]; NRG (NOD.Cg-Rag1tm1Mom Il2rgtm1Wjl/SzJ), tumour/kidney, 1 h p.i., NRG mice, SK-MEL-1 melanoma",1.18 ± 0.11
same,tissue to tissue ratio at 4 h,"[2]; NRG (NOD.Cg-Rag1tm1Mom Il2rgtm1Wjl/SzJ), tumour/kidney, 4 h p.i., NRG mice, SK-MEL-1 melanoma",2.14 ± 0.26
same,tissue to tissue ratio at 24 h,"[2]; NRG (NOD.Cg-Rag1tm1Mom Il2rgtm1Wjl/SzJ), tumour/kidney, 24 h p.i., NRG mice, SK-MEL-1 melanoma",3.68 ± 0.6
same,tissue to tissue ratio at 120 h,"[2]; NRG (NOD.Cg-Rag1tm1Mom Il2rgtm1Wjl/SzJ), tumour/kidney, 120 h p.i., NRG mice, SK-MEL-1 melanoma",6.17 ± 1.09
same,excreta dose per gram or mL at 1 h,[2]; [22],214 ± 57.6 %ID/g
same,excreta dose per gram or mL at 4 h,[2]; [22],258 ± 66.2 %ID/g
same,excreta dose per gram or mL at 24 h,[2]; [22],21.8 ± 4.6 %ID/g
same,excreta dose per gram or mL at 120 h,[2]; [22],3.56 ± 1.16 %ID/g
same,tissue to tissue ratio at 1 h,in vivo; Tumour/blood,0.69 ± 0.08
same,tissue to tissue ratio at 4 h,in vivo; Tumour/blood,2.24 ± 0.36
same,tissue to tissue ratio at 24 h,in vivo; Tumour/blood,62.8 ± 26.4
same,tissue to tissue ratio at 120 h,in vivo; Tumour/blood,436 ± 64.7
same,tissue to tissue ratio at 1 h,in vivo; Tumour/muscle,7.99 ± 1.03
same,tissue to tissue ratio at 4 h,in vivo; Tumour/muscle,23.6 ± 4.32
same,tissue to tissue ratio at 24 h,in vivo; Tumour/muscle,245 ± 48
same,tissue to tissue ratio at 120 h,in vivo; Tumour/muscle,394 ± 42.9
same,Adverse effects,SK-MEL-1 human melanoma [3],No obvious adverse effects were observed
